{"source": "patent US20220016215A1", "about": "“GIP RECEPTOR AGONIST PEPTIDE COMPOUNDS AND USES THEREOF” (TAKEDA PHAARMACEUTICAL COMPANY LIMITED, priority 2018, published 2022)", "key": {"human GLP-1R": {"biological_target": "human GLP-1R (Homo sapiens, UniProt P43220)", "sequence (P43220 24-463)": "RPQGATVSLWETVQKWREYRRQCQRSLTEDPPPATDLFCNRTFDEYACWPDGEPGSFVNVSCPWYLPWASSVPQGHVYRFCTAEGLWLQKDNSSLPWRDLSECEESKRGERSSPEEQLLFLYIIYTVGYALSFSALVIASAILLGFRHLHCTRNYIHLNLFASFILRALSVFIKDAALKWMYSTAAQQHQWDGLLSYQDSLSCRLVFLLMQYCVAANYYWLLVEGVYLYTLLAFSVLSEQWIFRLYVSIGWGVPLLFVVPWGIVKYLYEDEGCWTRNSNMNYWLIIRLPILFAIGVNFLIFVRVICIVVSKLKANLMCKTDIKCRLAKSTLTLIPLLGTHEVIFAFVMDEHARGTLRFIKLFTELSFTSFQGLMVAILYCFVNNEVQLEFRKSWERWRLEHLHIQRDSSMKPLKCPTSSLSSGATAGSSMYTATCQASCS", "assay": "Agonist activity on human GLP-1R, CRE-luciferase reporter assay (increase in intracellular cAMP as indicator)", "format": "cell-based", "set-up": "expressed in transfected cells", "conditions": "hGLP-1R/CRE-luc/CHO-K1 cells, 4 h incubation", "from_the_text": "The human GIPR gene having an identical sequence to Genebank Accession No. U39231 is cloned into a pMSRα-neo vector to prepare hGIPR/pMSRα-neo.\n(3) Construction of Reporter Plasmid\nFour copies of a cAMP responsive sequence and a Zeocin resistance gene are transferred to pGL3(R2.2)-Basic Vector (Promega) to construct a Cre-luc(Zeo) reporter plasmid.\n(5) Construction of Expression Plasmid of Human GLP-1R Gene\nThe human GLP-1R gene having an identical sequence to Genebank Accession No. NM_002062 is cloned into a pIRESneo3 vector to prepare hGLP-1/pIRESneo3.\n(6) Transfer of Human GLP-1R Gene and Reporter Plasmid to CHO-K1 Cell and Obtaining of Expressing Cell\nThe Cre-luc (Zeo) obtained in (3) and the plasmid hGLP-1/pIRESneo3 obtained in (5) transferred to the CHO-K1 cell to obtain a transformant. Subsequently, the cell line inducing the luciferase expression, hGLP-1R/CRE-luc/CHO-K1 cell, is selected from the obtained transformant by adding GLP-1.\nThe GLP-1R agonist activity is assayed in the same manner as above using the hGLP-1R/CRE-luc/CHO-K1 cell."}, "human GIPR": {"biological_target": "T1, human GIPR (Homo sapiens, UniProt P48546)", "T1 construct": "expressed in transfected cells", "T1 sequence (P48546 22-466)": "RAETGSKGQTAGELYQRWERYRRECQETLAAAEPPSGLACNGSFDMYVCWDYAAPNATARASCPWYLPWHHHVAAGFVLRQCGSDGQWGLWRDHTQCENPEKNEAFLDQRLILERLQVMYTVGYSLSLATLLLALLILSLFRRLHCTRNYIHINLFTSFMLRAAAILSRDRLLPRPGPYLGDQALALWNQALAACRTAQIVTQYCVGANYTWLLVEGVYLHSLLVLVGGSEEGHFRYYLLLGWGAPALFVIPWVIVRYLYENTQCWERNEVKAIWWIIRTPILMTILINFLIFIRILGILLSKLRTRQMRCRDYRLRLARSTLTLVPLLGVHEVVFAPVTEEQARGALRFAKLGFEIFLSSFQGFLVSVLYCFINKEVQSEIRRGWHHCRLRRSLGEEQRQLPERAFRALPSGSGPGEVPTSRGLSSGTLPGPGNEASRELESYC", "assay": "Agonist activity on human GIPR, CRE-luciferase reporter assay (increase in intracellular cAMP as indicator)", "format": "cell-based", "conditions": "for Selectivity Ratio (B/A): GLP1R EC50 / GIPR EC50; for EC50: hGIPR/CRE-LUC/CHO-K1 cells, 4 h incubation", "outline": "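CHO-K1 cells carrying CRE-luciferase and stably expressing human GIPR, 5×10^3 cells/well, exposed to compound for 4 hours at 37° C.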"}, "[1]": {"test_system": "morphine (0.6 mg/kg, s.c.)-induced emesis in ferrets", "assay": "Morphine-induced acute emetic model in male ferrets", "format": "in vivo, ferret", "outline": "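Male ferrets (4 per group) received peptide at 10 or 30 nmol/kg s.c. in 0.09% Tween 80/10% DMSO/saline, or vehicle. Morphine 0.6 mg/kg s.c. was given 4 or 120 h later, and abdominal contractions, vomiting, licking and fidgeting were recorded for up to 360 min.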"}, "[2]": {"test_system": "Y2R agonist-induced emesis in dogs", "format": "in vivo, dog", "conditions": "30 nmol/kg s.c.", "procedure": "Example 8 PYY-1119-Induced Vomiting in Dogs\nEmetic episodes were counted for 2 hours after administration (by blinded analysis).\nEmetic episodes were counted for 2 hours after Y2R agonist administration (by blinded analysis)."}, "[3]": {"conditions": "ferret, morphine 0.6 mg/kg s.c. 0.5 h after drug, 128 μg/kg s.c."}, "[4]": {"conditions": "ferret, morphine 0.6 mg/kg s.c. 0.5 h after drug, 128 μg/kg s.c., non-responders counted as 30 min"}, "[5]": {"conditions": "female beagle dogs, Y2R agonist 10 μg/kg s.c. at 8 hours postdose"}, "[6]": {"conditions": "female beagle dogs, Y2R agonist 10 μg/kg s.c. at 8 hours postdose, counted for 2 hours"}}, "note": "Read-outs that look alike come from different tables or passages of the source.", "data": [{"molecule": "CC[C@H](C)[C@H](NC(=O)[C@H](CC(C)C)NC(=O)[C@H](Cc1c[nH]c2ccccc12)NC(=O)[C@H](CCC(N)=O)NC(=O)[C@@H](NC(=O)[C@H](Cc1ccccc1)NC(=O)[C@H](C)NC(=O)[C@H](CCCNC(=N)N)NC(=O)[C@H](CCC(N)=O)NC(=O)[C@H](C)NC(=O)[C@@H](NC(=O)[C@H](CCCCN)NC(=O)[C@H](CC(=O)O)NC(=O)[C@H](CC(C)C)NC(=O)C(C)(C)NC(=O)[C@@H](NC(=O)[C@H](CO)NC(=O)[C@H](Cc1ccc(O)cc1)NC(=O)[C@H](CC(=O)O)NC(=O)[C@H](CO)NC(=O)[C@@H](NC(=O)[C@H](Cc1ccccc1)NC(=O)[C@@H](NC(=O)CNC(=O)[C@H](CCC(=O)O)NC(=O)C(C)(C)NC(=O)[C@@H](N)Cc1ccc(O)cc1)[C@@H](C)O)[C@@H](C)O)[C@@H](C)CC)[C@@H](C)CC)C(C)C)C(=O)N[C@@H](C)C(=O)NC(C)(C)C(=O)N[C@@H](CCCCN)C(=O)NCC(=O)N[C@@H](CCCCN)C(=O)N[C@@H](CCCCN)C(=O)N[C@@H](CCC(N)=O)C(=O)N[C@@H](CCC(=O)O)C(=O)N[C@@H](Cc1c[nH]c2ccccc12)C(=O)N[C@@H](CCCCN)C(=O)N[C@@H](Cc1c[nH]cn1)C(=O)N[C@@H](CCC(N)=O)C(=O)N[C@H](C(=O)N[C@H](C(=O)N[C@@H](CCC(N)=O)C(=O)N[C@@H](CCCCNC(C)=O)C(N)=O)[C@@H](C)O)[C@@H](C)CC", "note": "[Compound 16]", "values": [{"measurement": "EC50", "setting": "human GLP-1R; read-out: GLP1R EC50 nM (B)", "result": "< 0.02", "unit": "nM"}, {"measurement": "EC50", "setting": "human GLP-1R; read-out: GLP1R pEC50 (converted)", "result": 0.017, "unit": "nM"}, {"measurement": "Selectivity Ratio (B/A)", "setting": "human GIPR", "result": 20}, {"measurement": "EC50", "setting": "human GIPR; read-out: GIPR pEC50 (converted)", "result": 0.001, "unit": "nM"}]}, {"molecule": "CC[C@H](C)[C@H](NC(=O)[C@H](CO)NC(=O)[C@H](Cc1ccc(O)cc1)NC(=O)[C@H](CC(=O)O)NC(=O)[C@H](CO)NC(=O)[C@@H](NC(=O)[C@H](Cc1ccccc1)NC(=O)[C@@H](NC(=O)CNC(=O)[C@@H]1CCCN1C(=O)[C@H](C)NC(=O)[C@@H](N)Cc1ccc(O)cc1)[C@@H](C)O)[C@@H](C)CC)C(=O)N[C@@H](C)C(=O)N[C@@H](CCSC)C(=O)N[C@@H](CC(=O)O)C(=O)N[C@@H](CCCCN)C(=O)N[C@H](C(=O)N[C@@H](Cc1c[nH]cn1)C(=O)N[C@@H](CCC(N)=O)C(=O)N[C@@H](CCC(N)=O)C(=O)N[C@@H](CC(=O)O)C(=O)N[C@@H](Cc1ccccc1)C(=O)N[C@H](C(=O)N[C@@H](CC(N)=O)C(=O)N[C@@H](Cc1c[nH]c2ccccc12)C(=O)N[C@@H](CC(C)C)C(=O)N[C@@H](CC(C)C)C(=O)N[C@@H](C)C(=O)N[C@@H](CCC(N)=O)C(=O)N[C@@H](CCCCN)C(=O)N1CCC[C@H]1C(=O)N[C@@H](CO)C(=O)N[C@@H](CO)C(=O)NCC(=O)N[C@@H](C)C(=O)N1CCC[C@H]1C(=O)N1CCC[C@H]1C(=O)N1CCC[C@H]1C(=O)N[C@@H](CO)C(N)=O)C(C)C)[C@@H](C)CC", "note": "[Compound 12]", "values": [{"measurement": "Emesis: Duration", "setting": "[1]; [3]", "result": "1.5 ± 2.4", "unit": "min"}, {"measurement": "Emesis: Frequency", "setting": "[1]; [3]", "result": "3.8 ± 5.7"}, {"measurement": "Emesis: No. of animals (responder/used)", "setting": "[1]; [3]", "result": "2/4"}, {"measurement": "Fidget: Duration", "setting": "[1]; [3]", "result": "1.3 ± 1.9", "unit": "min"}, {"measurement": "Fidget: Frequency", "setting": "[1]; [3]", "result": "0.8 ± 1.0"}, {"measurement": "Fidget: No. of animals (responder/used)", "setting": "[1]; [3]", "result": "2/4"}, {"measurement": "Licking: Duration", "setting": "[1]; [3]", "result": "1.5 ± 1.7", "unit": "min"}, {"measurement": "Licking: Frequency", "setting": "[1]; [3]", "result": "1.3 ± 1.0"}, {"measurement": "Licking: No. of animals (responder/used)", "setting": "[1]; [3]", "result": "3/4"}, {"measurement": "Retching: Duration", "setting": "[1]; [3]", "result": "1.5 ± 2.4", "unit": "min"}, {"measurement": "Retching: Frequency", "setting": "[1]; [3]", "result": "3.3 ± 5.3"}, {"measurement": "Retching: No. of animals (responder/used)", "setting": "[1]; [3]", "result": "2/4"}, {"measurement": "Vomiting: Duration", "setting": "[1]; [3]", "result": "0.5 ± 0.6", "unit": "min"}, {"measurement": "Vomiting: Frequency", "setting": "[1]; [3]", "result": "0.5 ± 0.6"}, {"measurement": "Vomiting: No. of animals (responder/used)", "setting": "[1]; [3]", "result": "2/4"}, {"measurement": "Emesis: Latency", "setting": "[1]; [4]", "result": "18.3 ± 13.7", "unit": "min"}, {"measurement": "Fidget: Latency", "setting": "[1]; [4]", "result": "18.3 ± 13.7", "unit": "min"}, {"measurement": "Licking: Latency", "setting": "[1]; [4]", "result": "13.8 ± 11.3", "unit": "min"}, {"measurement": "Retching: Latency", "setting": "[1]; [4]", "result": "18.3 ± 13.7", "unit": "min"}, {"measurement": "Vomiting: Latency", "setting": "[1]; [4]", "result": "19.5 ± 12.1", "unit": "min"}, {"measurement": "Attenuation of morphine-induced emesis (in words)", "setting": "[1]; male ferrets, 30 nmol/kg s.c. 30 minutes before morphine 0.6 mg/kg s.c.", "result": "completely attenuated"}, {"measurement": "Comment: Anti-Emetic Activity (inhibition) on morphine-induced emesis", "setting": "[1]; male ferrets, summary of the morphine experiments", "result": "partial inhibition"}, {"measurement": "EC50", "setting": "human GLP-1R; read-out: GLP1R EC50 nM (B)", "result": "> 1000", "unit": "nM"}, {"measurement": "Selectivity Ratio (B/A)", "setting": "human GIPR", "result": ">23,810"}, {"measurement": "EC50", "setting": "human GIPR; read-out: GIPR EC50 nM (A)", "result": 0.042, "unit": "nM"}]}, {"molecule": "YAibEGTFISDYSIALDK(Lys-(ethylene glycol)2-C15 diacid)HQQDFVNWLLAQRG-OH [Compound 26]", "values": [{"measurement": "Anti-emetic effects in animal models of emesis (dogs) (in words)", "setting": "[2]; dogs, Tables 16 and 17", "result": "significant anti-emetic effects"}, {"measurement": "Duration of emesis", "setting": "[2]; [5]", "result": "0.0 ± 0.0", "unit": "min"}, {"measurement": "Latency period of emesis", "setting": "[2]; [5]", "result": "92.3 ± 55.5", "unit": "min"}, {"measurement": "No. of animals that did not vomit", "setting": "[2]; [6]", "result": 3}, {"measurement": "No. of emetic episodes", "setting": "[2]; [6]", "result": "0.3 ± 0.5"}, {"measurement": "No. of emetic episodes, % Inhibition", "setting": "[2]; female beagle dogs, Y2R agonist at 8 hours postdose, decreased ratio of mean emetic episodes vs vehicle group", "result": "[96.6%]"}, {"measurement": "Selectivity Ratio (B/A)", "setting": "human GIPR", "result": ">100,000"}]}]}
